“And” between values parts separate entries of the source, which are not always exact repeats. Equal entries are not always repeated. Where two headings read alike, the source gives them in different places.
How the values were obtained:
[1] = Single-dose (Pristiq 100 mg, oral) pharmacokinetics in healthy volunteers, plasma LC-MS/MS, non-compartmental; format: in vivo, human
Text: The present study was nested in a single-dose, open-label, randomized, pharmaco-bioequivalence study performed under biosafety and ethical standards. The data used were derived from 35 healthy volunteers who received the reference drug (Pristiq®, by Pfizer, Newbridge–Ireland) and who were selected for the study after assessment of their health status via clinical evaluation and a comprehensive set of laboratory tests. The same parameters were used to monitor adverse events post study.
The analytical method was validated according to the respective resolution of the Agência Nacional de Vigilância Sanitária [Brazilian Public Health Surveillance Agency] [9]. The study used an LC-MS/MS system to verify quantification and calculate pharmacokinetic parameters and performed chromatographic separations in an LC-20AD analytical pump (Shimadzu-Kyoto, Japan) using a SIL-20A HT autosampler (Shimadzu-Kyoto, Japan), coupled with mass spectrometry analyses using a Quattro Micro (Micromass, Newcastle, UK) mass spectrometer equipped with an electrospray ionization (ESI) source. […] was detected via a multiple reaction monitoring (MRM) transition of 264.33 > 58.15, and orphenadrine was detected via an MRM transition of 270.32 > 181.26. Data was acquired using MassLynx 4.1 (Waters, Newcastle, UK). More information on the validation method can be found in the Supplementary Materials, including chromatograms for the selectivity assay (Figure S1). Pharmacokinetic parameters were calculated employing a non-compartmental statistic using WinNonLin 8.3 software (Pharsight, New Jersey, USA).
Volunteers and Study Design
The study started with 48 enrolled participants. Of these, 13 participants desisted after drug administration. Of the 35 remaining participants, 23 different adverse events were reported for some of them.
The reference formulation was desvenlafaxine succinate monohydrate controlled-release coated tablet of 100 mg Pristiq® with administration of one single-dose tablet. The volunteers were hospitalized at 7:30 p.m. and had supper before 9:30 p.m. After an overnight fast, they received (at ∼5:40 a.m.) a tablet of 100 mg desvenlafaxine succinate monohydrate with 200 mL of water. The volunt eers then fasted for 4 h, after which period a standard lunch was served. A specific high-calorie diet was administered thirty minutes before taking the medication; Lunch: 4 hours after taking the medication; Afternoon snack:
8 hours after taking the medication; Dinner: 10 hours after taking the medication.
It was necessary to observe the ethical principle of non-maleficence due to the adverse event of nausea being considered very common (≥ 10%). the antiemetic (Dramin® B6 DL - IV - 30 mg / 100 mL saline / 30 minutes) was administered twice: the first dose immediately after administration of the study medication and a second dose 5:00 hours after administration of the study medication.
At 2 h before and 6, 8 and 12 h after the dose administration, vital signs were checked.
The recruitment period was 24 h, during which period, blood samples (8 mL) from a suitable antecubital vein were collected, post-dosing via an indwelling catheter, into […]
samples were centrifuged at ∼2,000×g for 10 min at 4°C, and the plasma was stored at - 70°C until assayed. Samples were handled under yellow light, due to the photosensitivity […]
Determination of Pharmacokinetic Profile by LC-MS/MS
Chromatographic separations were performed in an LC-20AD analytical pump and SIL-20A HT autosampler from Shimadzu. The stationary phase employed a Luna AgilLuna Agilent Polaris 5 µm C18-A 50 x 2,0mm column (Phenomenex). The mobile phase consisted of a solution of 10 mM ammonium acetate with 0.1% formic acid (Phase A) and acetonitrile with 0.1% formic acid (Phase B), flowing at 0.3 mL/min in proportion (2:8). The autosampler was maintained at 22°C, with an injection volume of 10 µl and 2.2- […]
Mass spectrometry was conducted on a Quattro Micro mass spectrometer from […]

[2] = Adverse events monitored by clinical evaluation and laboratory tests after single dose; format: in vivo, human
Text: The present study was nested in a single-dose, open-label, randomized, pharmaco-bioequivalence study performed under biosafety and ethical standards. The data used were derived from 35 healthy volunteers who received the reference drug ([…]®, by Pfizer, Newbridge-Ireland) and who were selected for the study after assessment of their health status via clinical evaluation and a comprehensive set of laboratory tests. The same parameters were used to monitor adverse events post study. At the beginning and end of the study, all participants underwent clinical evaluation and laboratory tests using the reference values proposed by […] or without clinical significance, according to a medical report. A complete summary of participants' characteristics is available in Table S1. Clinical and laboratory characteristics outside the normal referential criteria were reported as adverse events (Table S2). page 3: Pharmaceutics 2024, 16, 1385 3 of 6 1. Supplementary Methods Volunteers and Study Design The study started with 48 enrolled participants. Of these, 13 participants desisted after drug administration. Of the 35 remaining participants, 23 different adverse events were reported for some of them. The reference formulation was desvenlafaxine succinate monohydrate controlled- release coated tablet of 100 mg […]® with administration of one single-dose tablet. The volunteers were hospitalized at 7:30 p.m. and had supper before 9:30 p.m. After an overnight fast, they received (at ∼5:40 a.m.) a tablet of 100 mg desvenlafaxine succinate monohydrate with 200 mL of water. The volunt eers then fasted for 4 h, after which period a standard lunch was served. A specific high-calorie diet was administered thirty minutes before taking the medication; Lunch: 4 hours after taking the medication; Afternoon snack: 8 hours after taking the medication; Dinner: 10 hours after taking the medication. It was necessary to observe the ethical principle of non-maleficence due to the adverse event of nausea being considered very common (≥ 10%). the antiemetic ([…] - 30 mg / 100 mL saline / 30 minutes) was administered twice: the first dose immediately after administration of the study medication and a second dose 5:00 hours after administration of the study medication. At 2 h before and 6, 8 and 12 h after the dose administration, vital signs were checked. The recruitment period was 24 h, during which period, blood samples (8 mL) from a suitable antecubital vein were collected, post-dosing via an indwelling catheter, into Heparin lithium-containing tubes at 0, 1:00, 2:00, 3:00, 4:00, 5:00, 6:00, 6:15, 6:30, 6:45, 7:00, 7:15, 7:30, 7:45, 8:00, 8:20, 8:40, 9:00, 10:00, 12:00, 24:00, and 36:00, 48:00, 72.0h. The blood samples were centrifuged at ∼2,000×g for 10 min at 4°C, and the plasma was stored at - 70°C until assayed. Samples were handled under yellow light, due to the photosensitivity of the drug. Determination of Pharmacokinetic Profile by LC-MS/MS Chromatographic separations were performed in an LC-20AD analytical pump and SIL-20A HT autosampler from Shimadzu. The stationary phase employed a Luna AgilLuna Agilent Polaris 5 μm […] 50 x 2,0mm column (Phenomenex). The mobile phase consisted of a solution of 10 mM ammonium acetate with 0.1% formic acid (Phase A) and acetonitrile with 0.1% formic acid (Phase B), flowing at 0.3 mL/min in proportion (2:8). The autosampler was maintained at 22°C, with an injection volume of 10 μl and 2.2- minute duration. Mass spectrometry was conducted on a Quattro Micro mass spectrometer from Micromass, equipped with an electrospray ionization (ESI) source. […]

[3] = design: method as in doi:10.4172/jbb.1000130; settings: cited from earlier work
[4] = design: method as in doi:10.4172/jbb.1000130; settings: cited from earlier work; remark: listed apart in the source
[5] = test system: muscarinic–cholinergic receptors; design: method as in PMID 20694066; settings: cited from earlier work
[6] = test system: H1-histaminergic receptors; design: method as in PMID 20694066; settings: cited from earlier work
α1-adrenergic receptors = test system: α1-adrenergic receptors; design: method as in PMID 20694066; settings: cited from earlier work
monoamine oxidase = test system: monoamine oxidase; design: method as in PMID 20694066; settings: cited from earlier work
[7] = cited from earlier work
[8] = 35 healthy volunteers, single oral 100 mg Pristiq, plasma
[9] = 35 participants, single 100 mg dose

SMILES: CN(C)CC(c1ccc(O)cc1)C1(O)CCCCC1 (stereo not shown) [desvenlafaxine, O-desmethylvenlafaxine]
- AUC 0-t, Maximum [1, 8]: 10,338.49 h*ng/mL
- AUC 0-t, Minimum [1, 8]: 2711.68 ng·h/mL
- Cmax, Maximum [1, 8]: 469.15 ng/mL
- Cmax, Minimum [1, 8]: 123.16 ng/mL
- Kel, Maximum [1, 8]: 0.11 h⁻¹
- Kel, Minimum [1, 8]: 0.06 h⁻¹
- T ½, Maximum [1, 8]: 12.00 h
- T ½, Minimum [1, 8]: 6.63 h
- Tmax, Maximum [1, 8]: 12.00 h
- Tmax, Minimum [1, 8]: 4.00 h
- AUC(0-t) ([1]; human, plasma, po, 100 mg, 35 healthy volunteers, single oral 100 mg Pristiq, plasma, read-out: AUC 0-t, Mean): 6050 ng·h/mL
- AUC(0-t) ([1]; human, plasma, po, 100 mg, 35 healthy volunteers, single oral 100 mg Pristiq, plasma, read-out: AUC 0-t, Median): 5780 ng·h/mL
- Cmax ([1]; human, plasma, po, 100 mg, 35 healthy volunteers, single oral 100 mg Pristiq, plasma, read-out: Cmax, Mean): 290 ng/mL
- Cmax ([1]; human, plasma, po, 100 mg, 35 healthy volunteers, single oral 100 mg Pristiq, plasma, read-out: Cmax, Median): 276 ng/mL
- k el ([1]; human, plasma, po, 100 mg, 35 healthy volunteers, single oral 100 mg Pristiq, plasma, read-out: Kel, Mean (converted)): 2.22e-05 s⁻¹
- k el ([1]; human, plasma, po, 100 mg, 35 healthy volunteers, single oral 100 mg Pristiq, plasma, read-out: Kel, Median (converted)): 1.94e-05 s⁻¹
- half-life ([1]; human, plasma, po, 100 mg, 35 healthy volunteers, single oral 100 mg Pristiq, plasma, read-out: T ½, Mean (converted)): 9.43 h
- half-life ([1]; human, plasma, po, 100 mg, 35 healthy volunteers, single oral 100 mg Pristiq, plasma, read-out: T ½, Median (converted)): 9.35 h
- Tmax ([1]; human, plasma, po, 100 mg, 35 healthy volunteers, single oral 100 mg Pristiq, plasma, read-out: Tmax, Mean): 7.4 h
- Tmax ([1]; human, plasma, po, 100 mg, 35 healthy volunteers, single oral 100 mg Pristiq, plasma, read-out: Tmax, Median): 7.5 h
- k el ([1]; human, plasma, po, 100 mg, individual participants, single oral 100 mg Pristiq, read-out: Kel (converted)): 1.94e-05 s⁻¹
- half-life ([1]; human, plasma, po, 100 mg, individual participants, single oral 100 mg Pristiq, read-out: T1/2 (converted)): 10.1 h
- Tmax ([1]; individual participants P1-P35, single oral 100 mg Pristiq): 6.50 h and 8.67 h and 6.25 h and 4.00 h and 6.00 h and 8.33 h and 6.75 h and 7.00 h and 10.00 h and 5.00 h and 7.75 h and 12.00 h and 9.00 h
- Alanine Aminotransferase Increased, events count [2, 9]: 3
- Altered Erythrogram, events count [2, 9]: 1
- Altered Leukogram, events count [2, 9]: 3
- Anxiety, events count [2, 9]: 1
- Aspartate Transaminase Increased, events count [2, 9]: 5
- Cephalea, events count [2, 9]: 3
- Diarrhea, events count [2, 9]: 1
- General malaise, events count [2, 9]: 6
- Incresead triglycerides, events count [2, 9]: 2
- Leukocyturia, events count [2, 9]: 2
- Nausea, events count [2, 9]: 5
- Syncope, events count [2, 9]: 1
- Total Cholesterol Increased, events count [2, 9]: 1
- Vomiting, events count [2, 9]: 6
- Alanine Aminotransferase Increased, intensity ([2]; human, in vivo): Mild
- Altered Erythrogram, intensity ([2]; human, in vivo): Mild
- Altered Leukogram, intensity ([2]; human, in vivo): Mild
- Anxiety, intensity ([2]; human, in vivo): Mild
- Aspartate Transaminase Increased, intensity ([2]; human, in vivo): Mild
- Cephalea, intensity ([2]; human, in vivo): Mild
- Diarrhea, intensity ([2]; human, in vivo): Mild
- General malaise, intensity ([2]; human, in vivo): Mild
- Incresead triglycerides, intensity ([2]; human, in vivo): Mild
- Leukocyturia, intensity ([2]; human, in vivo): Mild
- Nausea, intensity ([2]; human, in vivo): Mild
- Syncope, intensity ([2]; human, in vivo): Mild
- Total Cholesterol Increased, intensity ([2]; human, in vivo): Mild
- Vomiting, intensity ([2]; human, in vivo): Mild
- volume of distribution ([3]; after intravenous administration): 3.4 L/kg
- excreted as the glucuronide metabolite [3]: ~ 19%
- excreted as the oxidative metabolite (N,O-didesmethylvenlafaxine) [3]: < 5%
- excreted unchanged [3]: ~ 45%
- mean half-life [3]: approximately 11 h
- bioavailability ([3]; oral intake): 80%
- time to maximum plasma concentrations (Cmax) ([3]; oral intake): 7.5 h
- plasma protein binding [4]: 30%
- effect on muscarinic–cholinergic receptors [5]: does not significantly affect
- effect on H1-histaminergic receptors [6]: does not significantly affect
- effect on α1-adrenergic receptors (α1-adrenergic receptors): does not significantly affect
- inhibition of monoamine oxidase (monoamine oxidase): nor does it inhibit
- blood cholesterol and triglyceride levels [7]: can increase
- participants with increased blood pressure ([7]; five participants of a clinical study): 10%
- systolic and diastolic blood pressure change ([7]; short-term desvenlafaxine treatment): small but statistically significant increases
- frequency of the adverse event nausea (very common) ([7]; stated as known frequency, no reference given): ≥ 10%

From PMC11597518, “Pharmacometabolomics Approach to Explore Pharmacokinetic Variation and Clinical Characteristics of a Single Dose of Desvenlafaxine in Healthy Volunteers” (Pharmaceutics, 2024)
